Reference: US20180119105A1, “METHOD FOR PRODUCTION OF INSULIN-PRODUCING CELLS” (University of Copenhagen, priority 2015, published 2018)

Key:
[1] = test system: Wild type C57bl6 mouse pancreatic explants at E11.5; assay: RT-qPCR of endocrine gene expression in mouse pancreatic explants cultured ex-vivo with Verteporfin; assay type: cell-based; conditions: 1 μg/ml Verteporfin for 72 hours; RT-qPCR after 6 days of culture; fold change relative to Ecad expression
Method: FIG. 4: Inhibition of Yap1 using Verteporfin in wild type mouse pancreatic explants leads to enhanced endocrine differentiation. Wild type C57bl6 mouse pancreatic explants at E11.5 embryonic stages were cultured ex-vivo for initial 24 hrs in normal culture media supplemented with 1 ug/ml Verteporfin for 72 hours and again in normal culture media without Verteporfin for another 48 hours. The explants were analyzed by RT-qPCR for endocrine gene expression after 6 days of culture. […] This ultimately leads to enhanced endocrine differentiation as analysed for Insulin (E) and Glucagon (F) expression. Y axis: relative expression (fold change relative to Ecad expression).
Wild type C57bl6 mouse pancreatic explants at E11.5 embryonic stages were cultured ex-vivo for initial 24 hours in normal culture media supplemented with 1 μg/ml Verteporfin for 72 hours and again in normal culture media without Verteporfin for another 48 hours. The explants were analyzed by RT-qPCR for endocrine gene expression after 6 days of culture. […] Expression of these genes is characteristic of islet cell fate.

[2] = test system: hES cell derived pancreatic progenitors (PDX1 eGFP); assay: qRT PCR analysis of hES cell derived pancreatic progenitors treated with verteporfin for 4 days; assay type: cell-based, human; conditions: 1 μg/ml verteporfin, compared to DMSO treated control cultures
Method: FIG. 5: Inhibition of YAP1 in hES cell derived pancreatic progenitors leads to β-cell differentiation. (A) Outline of the 15 day protocol (modified from Rezania et al, 2010) used to generate pancreatic progenitors from human ES cells. At the end of the protocol the majority of cells express the progenitor markers PDX1 and NKX6.1. The YAP1-TEAD inhibitor Verteporfin (VP) was added to the medium during PE day 4 and the cells were treated for either 4 or 5 days. […] Y axis: relative mRNA expression as fold change.
(§1) We cultured the hES PDX1 GFP cells using a modified protocol from Rezania et al 2010 (see below for the exact protocol, outlined in FIG. 5A) that efficiently generates pancreatic progenitors mostly expressing PDX1, NKX6.1. Briefly, Hues4 hES PDX1 GFP cells were cultured on feeder-free DEF system (““DEF-CS™”, Cellectis stem cells, Cellartis AB”) until full confluency. When full confluency was reached the cells were subjected to differentiation as follows for 5 different stages to obtain insulin producing mature Beta cells.
(§2) Cells were cultured in RPMI medium with 3 μM CHIR99021 (a Wnt activator) for 1 day. During the second day the cells were treated with 100 ng/ml Activin A. For days 3 and 4 the cells were treated with 100 ng/ml Activin A along with 2% (v/v) B27.
(§3) The cultures were exposed to F12 media containing 2% B27, 2 gm/L Sodium bicarbonate along with 0.25 mM Vitamin C and 50 ng/ml FGF7 for two days.
(§4) The cultures were continued for four days in DMEM high glucose media along with 2% B27, 2 g/L Sodium bicarbonate, 0.25 mM Vitamin C, 2 ng/ml FGF7, 0.25 μM Sant1, 100 ng/ml Noggin and 2 μM Retinoic acid.
(§5) Stage 4 cells were cultured for 5 days to obtain PDX1 and NKX6.1 expressing pancreatic progenitor cells by culturing in 2% B27, 2 gm/L Sodium bicarbonate, 0.25 mM Vitamin C, 100 ng/ml Noggin and 500 nM TPB (PKC activator).
(§6) To obtain insulin expressing, MAFA positive mature Beta cells, the cultures were treated with the YAP-TEAD inhibitor Verteporfin at a concentration of 1 μg/ml in Stage 4 medium and cultured for another 4-9 days.
(§7) After culturing the cells for the first 4 stages above (around 15 days), the differentiated hES cells were enriched for PDX1 expression as they expressed GFP. These enriched pancreatic progenitor cultures were treated with the YAP1 -TEAD chemical inhibitor Verteporfin for an additional 4-5 days and checked for gene expression (stage 5). As expected from mouse studies, inhibition of YAP1 activity in the PDX1 enriched cells, using verteporfin after 4 days led to efficient and enhanced endocrine differentiation especially towards insulin producing beta cells at the expense of acinar lineage.

[3] = test system: hES cell derived pancreatic progenitors (PDX1 eGFP); assay: qRT PCR analysis of hES cell derived pancreatic progenitors treated with verteporfin for 5 days; assay type: cell-based, human; conditions: verteporfin 5 days
Method: FIG. 6: Treatment with verteporfin for 5 days leads to enhanced expression of islet specific genes. […] Expression of NKX6.1 is not altered, as it is expressed in both pancreatic progenitors and mature beta-cells. […]
as §1, §2, §3, §4, §5, §6, §7
(§8) The verteporfin treatment directed the pancreatic progenitors to endocrine lineage differentiation at the expense of acinar lineage.

[4] = test system: hES cell derived pancreatic progenitors (PDX1-eGFP); assay: Immunostaining (C-peptide, Glucagon, GFP) of hES cell derived pancreatic progenitors treated with verteporfin for 5 days; assay type: cell-based, human
Source text: FIG. 7: Treating hES cell derived pancreatic progenitors with verteporfin for 5 days leads to enhanced insulin expression. Stable PDX1-eGFP human ES cells were differentiated to pancreatic progenitor stage and treated with either DMSO (controls) or Verteporfin for 5 days and immuno stained with C-peptide (white), Glucagon (dark grey) and GFP PDX1 (light grey). Verteporfin-treated progenitors show enhanced endocrine/beta cell differentiation and express higher levels of C-peptide, whereas DMSO treated cells express low levels of C-peptide and Glucagon.
as §8

[5] = test system: Stable Pdx1 Gfp human ES cells differentiated to pancreatic progenitor stage; assay: Immunostaining (c-peptide, Neurogenin3) with confocal microscopy of hES cell derived pancreatic progenitors treated with VP for 5 days; assay type: cell-based; conditions: VP 1 μg/ml, compared to DMSO treated cells
Method: FIG. 8: hES cell derived pancreatic progenitors treated with VP for 5 days show enhanced endocrine differentiation & Insulin expression. Stable Pdx1 Gfp human ES cells were differentiated to pancreatic progenitor stage and then treated with either DMSO (control) or Verteporfin (VP, 1 μg/ml) for 5 additional days. Cultures were immuno-stained with c-peptide (light grey) and Neurogenin3 (dark grey) antibodies and imaged using confocal microscope.
Stable Pdx1 Gfp human ES cells were differentiated to pancreatic progenitor stage and then treated with either DMSO (control) or Verteporfin (VP, 1 μg/ml) for 5 additional days. Cultures were immuno-stained with c-peptide and Neurogenin3 antibodies and imaged using confocal microscopy (FIG. 8).

[6] = fold-change versus DMSO control
[7] = verteporfin 5 days vs DMSO, immunostaining

## Verteporfin
[1]
  Arx expression: significant up-regulation
  Glucagon expression: increased expression
  Insm1 expression: significant up-regulation
  Insulin expression: increased expression
  NeuroD expression: significant up-regulation
  Neurogenin (Ngn3) expression: significant up-regulation
[2]
  CPA1 mRNA expression (exocrine gene): down-regulated
  Glucagon mRNA expression: up-regulation
  ISL-1 mRNA expression: up-regulation
  Insulin mRNA expression: up-regulation
  MAFA mRNA expression: up-regulation
  MAFB mRNA expression: up-regulation
  PTF1a mRNA expression (exocrine gene): down-regulated
[3]; compared to DMSO control cultures
  insulin mRNA levels up-regulated: 5 fold
[3]; compared to day 4 cultures
  INSM1 mRNA expression: up-regulation
  ISL1 mRNA expression: up-regulation
  MAFA mRNA expression: up-regulation
[3]; [6]
  CPA1 mRNA expression (exocrine gene): down-regulation
  Glucagon mRNA expression: down-regulation
  MAFB mRNA expression: up-regulation
  NKX6.1 mRNA expression: not altered
  Neurogenin3 (NGN3) mRNA expression: up-regulation
  PTF1a mRNA expression (exocrine gene): down-regulation
[4]; verteporfin 5 days
  MAFA status of Insulin expressing cells: positive for MAFA
[4]; [7]
  Glucagon protein expression: enhanced
  insulin (c-peptide) protein expression: enhanced
[5]
  Ngn3 level (immunostaining): higher levels
  c-peptide level (immunostaining): higher levels
